Reference: BindingDB's records for doi:10.1021/jm00119a003 (Northeastern University, 1988)

Molecular target: D(1A) dopamine receptor (Canis familiaris)
Assay: Ability to inhibit the binding of [3H]-SCH- 23390 to canine striatal membrane

Work on `CN1CCc2cc(I)c(O)cc2C(c2ccc(N=[N+]=[N-])cc2)C1` (stereo unspecified) [5-(4-Azido-phenyl)-8-iodo-3-methyl-2,3,4,5-tetrahydro-1H-benzo[d]azepin-7-ol] yielded a Kd of 0.15 nM.
